The values below come from ChEMBL document CHEMBL3217625, “Syntheses of a new class of phenyl butyraldehyde-derived amines with in vitro trypanocide activities” (Medchemcomm, 2012).

Calls of active or inactive are those of the source. The rule behind the calls is not given here.

In series [1] the target is T1, Trypanothione reductase (Trypanosoma cruzi, UniProt P28593). The series can be described thus: Time-dependent inhibition of Trypanosoma cruzi trypanothione reductase assessed as dissociation constants for enzyme-inhibitor binding using TS2 as substrate by DTNB-coupled assay. As to conditions: read-out: Ki(app).
T1 sequence (P28593 whole entry): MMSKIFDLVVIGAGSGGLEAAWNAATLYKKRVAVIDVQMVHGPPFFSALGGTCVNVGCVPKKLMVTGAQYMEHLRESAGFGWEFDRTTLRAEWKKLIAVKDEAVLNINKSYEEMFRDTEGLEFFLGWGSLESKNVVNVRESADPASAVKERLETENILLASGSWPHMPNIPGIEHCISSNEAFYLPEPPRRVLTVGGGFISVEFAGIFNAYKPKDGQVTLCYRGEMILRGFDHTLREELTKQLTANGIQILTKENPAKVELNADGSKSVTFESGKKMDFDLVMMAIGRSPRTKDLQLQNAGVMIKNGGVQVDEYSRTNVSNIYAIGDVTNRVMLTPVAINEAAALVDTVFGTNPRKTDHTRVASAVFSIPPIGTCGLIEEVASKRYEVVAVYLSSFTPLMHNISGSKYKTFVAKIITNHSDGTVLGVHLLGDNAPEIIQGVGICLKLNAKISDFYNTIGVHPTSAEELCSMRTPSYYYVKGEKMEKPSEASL
The target in series [2] is T1, Trypanothione reductase. In words: Time-dependent inhibition of Trypanosoma cruzi trypanothione reductase assessed as stabilization of enzyme-inhibitor complexes using TS2 as substrate by DTNB-coupled assay. As to conditions: read-out: Ki(app).
Series [3] deals with Trypanosoma cruzi. In words: Antiparasitic activity against Trypanosoma cruzi strain CL Brener epimastigotes assessed as growth inhibition after 72 hrs by neubauer chamber analysis. The format is functional, organism-based.
Series [4] relates to HeLa. In words: Cytotoxicity against human HeLa cells assessed as inhibition of cell proliferation at 5 ug/ml after 48 hrs by MTT assay. The format is cell-based. In general terms: Tetrazolium dyes change colour on reduction, which living cells bring about.
The subject of series [5] is Trypanosoma cruzi. The series can be described thus: Antiparasitic activity against Trypanosoma cruzi strain CL Brener epimastigotes assessed as growth inhibition at 4 ug/ml after 72 hrs by neubauer chamber analysis in presence of 10 uM H2O2 (Rvb= 0%). The format is functional.
The subject of series [6] is Trypanosoma cruzi. The series can be described thus: Antiparasitic activity against Trypanosoma cruzi strain CL Brener epimastigotes assessed as growth inhibition at 4 ug/ml after 72 hrs by neubauer chamber analysis. The format is functional. Particulars: read-out: GI.
The test system of series [7] is Trypanosoma cruzi. The series can be described thus: Antiparasitic activity against Trypanosoma cruzi strain CL Brener epimastigotes assessed as growth inhibition at 6 ug/ml after 72 hrs by neubauer chamber analysis in presence of 5 uM H2O2 (reference value: 0%). The format is functional.
The test system of series [8] is Trypanosoma cruzi. In words: Antiparasitic activity against Trypanosoma cruzi strain CL Brener epimastigotes assessed as growth inhibition at 4 ug/ml after 72 hrs by neubauer chamber analysis in presence of 5 uM H2O2 (reference value: 4%). The format is functional.
Series [9] deals with Trypanothione reductase (Trypanosoma cruzi) (UniProt P28593). The series can be described thus: Reversible competitive slow-binding inhibition of Trypanosoma cruzi trypanothione reductase using TS2 as substrate by DTNB-coupled assay. As to conditions: TDE = time-dependent effect.
Sequence of Trypanothione reductase (Trypanosoma cruzi) (P28593 whole entry, looked up): as the sequence (P28593 whole entry) above
For series [10], the system named is Trypanosoma cruzi. In words: Antiparasitic activity against Trypanosoma cruzi strain CL Brener epimastigotes assessed as growth inhibition at 4 ug/ml after 72 hrs by neubauer chamber analysis in presence of 20 uM H2O2 (Rvb= 3%). The format is functional.
The subject of series [11] is Trypanosoma cruzi. The series can be described thus: Antiparasitic activity against Trypanosoma cruzi strain CL Brener epimastigotes assessed as growth inhibition at 6 ug/ml after 72 hrs by neubauer chamber analysis in presence of 20 uM H2O2 (Rvb= 8%). The format is functional.
Series [12] deals with Trypanosoma cruzi. In words: Antiparasitic activity against Trypanosoma cruzi strain CL Brener epimastigotes assessed as growth inhibition at 6 ug/ml after 72 hrs by neubauer chamber analysis in presence of 10 uM H2O2 (Rvb= 7%). The format is functional.
Series [13] has as its system Trypanosoma cruzi. In words: Antiparasitic activity against Trypanosoma cruzi strain CL Brener epimastigotes assessed as growth inhibition at 6 ug/ml after 72 hrs by neubauer chamber analysis. The format is functional. Particulars: read-out: GI.
Series [14] deals with Trypanothione reductase (Trypanosoma cruzi) (UniProt P28593). In words: Time-dependent inhibition of Trypanosoma cruzi trypanothione reductase using TS2 as substrate by DTNB-coupled assay.
Series [15] deals with HeLa. The series can be described thus: Cytotoxicity against human HeLa cells assessed as inhibition of cell proliferation at 5 to 10 ug/ml after 48 hrs by MTT assay. The format is cell-based.

For `O=C1CC[C@]23/C=C/C(=O)NCCCCNCCCNC(=O)/C=C\c4ccc(c2c4)O[C@@H]3C1`, the Ki in series [1] is 304 µM; in series [2], 114 µM.
As to `Cc1cc(C)c(CCCC=O)c(C)c1O`, the concentration for half-maximal inhibition (IC50) – broadly, the concentration needed to halve the response being measured – in series [3] was determined as 485 µM.
With `Nc1nc(N)nc(Nc2ccc([As]=O)cc2)n1` (stereo not drawn) [MELARSEN OXIDE], the Ki in series [1] was determined as 18 µM; in [2], 1.4 µM.
Consider `O=C(Cn1ccnc1[N+](=O)[O-])NCc1ccccc1` [BENZNIDAZOLE], for which the Activity result in [4] was “Non-toxic”. The concentration for half-maximal inhibition (IC50) in series [3] was 10 µM.
With `CCCN(CCCCc1c(C)cc(C)c(O)c1C)CCCCc1c(C)cc(C)c(O)c1C`, the IC50 in [3] is 52.3 µM.
Still for that read-out and setting: as for `CCCNCCCCc1c(C)cc(C)c(O)c1C`, the figure is 55.8 µM; as for `C=CCc1cc(C)c(O)c(C)c1CCCCNCc1ccccc1`, 183 µM; as for `c1ccc(CCCN(CCCc2ccccc2)Cc2ccccc2)cc1`, 34.6 µM.
Take `C=CCc1cc(C)c(O)c(C)c1CCCCN(CCCCc1c(CC=C)cc(C)c(O)c1C)Cc1ccccc1`: the Activity entry in series [4] is on record as “Non-toxic”. Besides, the IC50 in series [3] was 19.8 µM.
For `Cc1cc(C)c(CCCCN(CCCCc2c(C)cc(C)c(O)c2C)Cc2ccccc2)c(C)c1O`, the Ki in series [1] came out at 288 µM; in series [2] it was 37 µM. In addition, the “growth inhibition (GI)” value stood at 52% in series [5]; 58% in series [7]; 48% in series [8]; 50% in series [10]; 53% in series [11]; 58% in series [12]. Moreover, in series [6], the inhibition of growth at 4 µg/mL is 50%. In addition, in series [4], the Activity result is recorded as “Non-toxic”. In addition, the inhibition result in series [9] was “tde”. In addition, the half-inhibitory concentration (IC50) in [3] came to 8 µM. Besides, in [13], the inhibition of growth at 6 µg/mL amounted to 49%.
For the compound `CCCN(CCCc1ccccc1)CCCc1ccccc1`, the Activity result in series [4] is listed as “Non-toxic”. Besides, the 50% inhibitory concentration (IC50) in series [3] stood at 18.6 µM.
`Cc1cc(C)c(CCCCNCc2ccccc2)c(C)c1O`: the inhibition entry in series [14] is “inactive”. The Activity entry in series [15] was “Toxic”. Besides, the half-inhibitory concentration (IC50) in [3] was determined as 10.1 µM.
For `CCCNCCCc1ccccc1`, the IC50 in series [3] amounted to 241 µM.
Regarding `c1ccc(CCCNCc2ccccc2)cc1`, in [3], the half-maximal inhibitory concentration (IC50) amounted to 104 µM.
